Data reported in US20020131953A1, “In situ langerhans cell vaccine” (UT SOUTHWESTERN MEDICAL CENTER, priority 2001, published 2002).

How the values were obtained:
Langerhans cells (LC) = assay: LC entrapment after subcutaneous rod implantation and DNFB painting; assay type: in vivo, BALB/c mice; conditions: 24 hours after DNFB painting over BSA rod implantation sites
Method: After 24 hr pre-incubation in PBS at 37° C., a MIP-3β or BSA rod was cut into 4 short pieces (2.5 mm length) and implanted subcutaneously into a mouse with 200 μl of PBS using a 20G1/2 needle.
In an attempt to induce LC maturation and elevate MIP-3β responsiveness, DNFB was applied over the implantation sites.

T cell migration = assay: Biological activity of MIP-3β released from EVA rods (T cell chemotaxis assay); assay type: cell-based; conditions: MIP-3β liberated from the EVA polymer, Day 3 samples tested at 33 or 100% (vol/vol)
Method: To determine whether the released MIP-3β was biologically active, the same samples as used above were tested at 33 or 100% (vol/vol) for their biological activities to promote T cell migration (FIG. 1e). DNFB-induced LC emigration was examined by counting the numbers of IA^+ and DEC205^+ epidermal cells after whole mount epidermal staining. See Mummert et al., 2000, J. Exp. Med. 192:769-779.

Spleen DC = assay: In vitro Transwell migration of spleen DC toward chemokine; assay type: cell-based, BALB/c mice; conditions: for % specific migration: spleen cell migration, transwell, 2 hr incubation at 37° C.
Method: (§1) Several chemokines were tested in an in vitro transwell system for their ability to promote migration of mature DC, including MIP-1α, MIP-1γ, MCP-3, RANTES and MIP-3β. In vitro cell migration assays were performed by using 6.5 mm Transwell units (Costar, Cambridge, Mass.). Spleen DC or T cells prepared from BALB/c mice were placed in the upper chamber of the transwell system and chemokine (e.g., MIP-3β) was added to the lower chamber of the transwell system. After 2 hr incubation at 37° C., the migratory cells were harvested from the lower chambers, and the % DC (or T cell) migration was calculated by dividing the output CD11c^+ (or CD3^+) cells by the input CD11c^+ (or CD3^+) cells.

T cells = assay: In vitro Transwell migration of T cells toward chemokine; assay type: cell-based, BALB/c mice; conditions: relative to mature DCs (FIG. 1a)
Method: as §1

Molecule	% specific migration (Spleen DC) [%]	also measured
O=[N+]([O-])c1ccc(F)c([N+](=O)[O-])c1 [DNFB, dinitroflourobenzene]	–	reduction in surface LC densities (Langerhans cells (LC)): 25-30%
MIP-3β	13.2	biological activity in the chemotaxis assay (T cell migration): significant biological activities; concentrations promoting migration of mature DCs (Spleen DC; chemokine in lower chamber (FIG. 1a)): 3 to 10 ng/mL; potency in promoting migration of CD11c-positive splenic dendritic cell fractions (Spleen DC; compared among the chemokines tested): most potent; concentrations required for recruiting T cells (T cells): much higher concentrations were required
monocyte chemotactic protein-3 [MCP-3]	18.2	–
MIP-1α (protein, UniProt P10147 24-92, looked up, chemokine tested for promoting migration of mature DC) C-C motif chemokine 3: SLAADTPTACCFSYTSRQIPQNFIADYFETSSQCSKPGVIFLTKRSRQVCADPSEEWVQKYVSDLELSA	8.2	–
MIP-1γ (protein, UniProt P51670 22-122, looked up, chemokine tested for promoting migration of mature DC) C-C motif chemokine 9: QITHATETKEVQSSLKAQQGLEIEMFHMGFQDSSDCCLSYNSRIQCSRFIGYFPTSGGCTRPGIIFISKRGFQVCANPSDRRVQRCIERLEQNSQPRTYKQ	5.4	–
RANTES (protein, UniProt P13501 24-91, looked up, chemokine tested for promoting migration of mature DC) C-C motif chemokine 5: SPYSSDTTPCCFAYIARPLPRAHIKEYFYTSGKCSNPAVVFVTRKNRQVCANPEKKWVREYINSLEMS	9.1	–
